Test results as given in patent US20200087248A1, “Fluoroallylamine Derivative And Use Thereof” (SICHUAN KELUN-BIOTECH BIOPHARMACEUTICAL CO., LTD., priority 2017, published 2020).
Structures can show the parent of a compound that is named as a salt.

Tests used:
Caco-2 cells = assay: Caco-2 permeation experiment; assay type: in vitro ADME; settings: 2 μM
Procedure: (§1) Caco-2 Permeation Experiment
(§2) Culture medium: 10%FBS+1% unnecessary amino acid+90%DMEM (high glucose)
(§3) Permeation solution (pH 7.4): HBSS (Ca^+, Mg^+)+10 mM Hepes
(§4) Compound reservation solution: an amount of the test compound was weighted and added with a certain amount of DMSO to formulate a 10 mM reservation solution.
(§5) Cells were inoculated to Transwell cells in a quantity of 6*10^4/cm^2, and at the A side (top side), were added with 200 μL of the culture medium, and at the B side (base side), were added with 1000 μL of the culture medium. After the inoculation, the solution was replaced once every 2 days, and the culture was conducted for 21 to 28 day.
(§6) After 21 to 28 days since the inoculation of Caco-2 cells, the transmembrane resistance was measured.
(§7) Permeation experiment: after the transepithelial electrical resistance was measured, the buffer solution at the two sides was removed by suction, then added thereto the solution according to the following system.
(§8) According to the experimental conditions as shown in the following Table 15, the reaction solution in each experimental group was formulated: […]
(§9) Sample treatment: after 2-hours incubation, 50 μL of the permeation solution were sucked up from each side of side A and side B, and equivalent volume of cold acetonitrile was added to terminate the reaction, and the concentrations of the compound at the A and B sides were measured by LC-MS/MS. The apparent permeation (Papp) and the Efflux Ratio were calculated according to the following equations:
(§10) Efflux Ratio=Papp(BA)/Papp (AB)
(§11) wherein, dCr/dt is the integration of the concentration of the compound at the base side realted to time, Vr is the reaction volume at the base side, A is the area of a single layer of cells, being 0.33 cm^2, and C0 is the concentration of the compound at the top side.

[1] = Caco-2 permeation experiment; assay type: in vitro ADME; settings: human
Procedure: as §1, §2, §3, §4, §5, §6, §7, §8, §9, §10, §11

SMILES: CC1(C)Cc2cc(OC/C(=C/F)CN)ccc2C(=O)N1 [HC38-E, (E)-6-((2-(aminomethyl)-3-fluoroallyl)oxy)-3,3-dimethyl-3,4-dihydroisoquinolin-1(2H)-one hydrochloride]
- Average apparent permeability A to B (Caco-2 cells; 120 min, pH 7.4): high permeability
- Efflux ratio (Caco-2 cells; Papp(BA)/Papp(AB)): low possibility of active efflux
- Papp A→B at 120 min, 2 μM ([1]; Caco-2, 120 min, pH 7.4, read-out: Average apparent permeability A to B): 2.6 ×10⁻⁶ cm/s
- Papp B→A at 120 min, 2 μM ([1]; Caco-2, 120 min, pH 7.4, read-out: Average apparent permeability B to A): 3.26 ×10⁻⁶ cm/s
- efflux ratio at 2 h, 2 μM ([1]; Caco-2, pH 7.4, Papp(BA)/Papp(AB)): 1.26
